The target in experiment [1] is T1, VIM-2 (Escherichia coli, UniProt Q5U7L7).
T1 construct: Li's Laboratory, Sichuan University (collaborator, a gift and not a purchase)

Another experiment relates to B3 L1 MBL. Also on record: method as in PMID 17999929, PMID 20625539, PMID 25893049. To be noted: Figure 1, reported inhibitor; read-out: L1 IC50 (reported MBL inhibitors); cited from earlier work.
For experiment [2], the target named is T2, NDM-1 (Klebsiella pneumoniae, UniProt C7C422).
T2 construct: Li's Laboratory, Sichuan University (collaborator, a gift and not a purchase)
T2 sequence (C7C422 29-270, looked up, species assumed): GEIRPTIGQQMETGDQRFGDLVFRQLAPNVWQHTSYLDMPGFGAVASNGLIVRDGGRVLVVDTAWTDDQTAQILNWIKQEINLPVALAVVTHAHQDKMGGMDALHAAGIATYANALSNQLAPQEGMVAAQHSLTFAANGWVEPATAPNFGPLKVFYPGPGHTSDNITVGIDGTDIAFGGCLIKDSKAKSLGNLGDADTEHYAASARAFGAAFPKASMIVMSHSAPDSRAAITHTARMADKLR
To be noted: Figure 1, reported inhibitors; read-out: NDM-1 IC50 (reported MBL inhibitors); cited from earlier work.

For experiment [3], the target named is T2, NDM-1. Put plainly: NDM-1 inhibition assay (FC5 fluorogenic substrate). To be noted: mean ± SD (n = 3). The format is biochemical. The method, then: (§1) Then, we tested all the target compounds against other B1 MBL enzymes, including NDM-1, IMP-1, VIM-1, and VIM-5 (Table 1); all the assay conditions (including enzyme/substrate concentrations) are the same as that previously used. […]. […].
(§2) All the target compounds were freshly prepared in 100 mM DMSO stock solutions. All the MBL and SBL enzymes used in this study were obtained from our collaborator, Li’s Laboratory in Sichuan University. Each compound was initially evaluated for inhibitory activity to MBL and SBL enzymes at 100 and 10 μM, by preincubation with the appropriate amount of enzymes in the assay buffer for 10 min, followed by adding the substrate FC5 to initiate the reactions, and monitoring the fluorescence at λex of 380 nm and λem of 460 nm. The IC50 values for the compounds (with 10 different concentrations in threefold dilution) were further determined. All determinations were tested in triplicate. The IC50 values were obtained from the plot of activity versus inhibitor concentration by using the GraphPad Prism software.

Experiment [4] has as its target T3, IMP-1 (Serratia marcescens, UniProt P52699).
T3 construct: Li's Laboratory, Sichuan University (collaborator, a gift and not a purchase)
Put plainly: IMP-1 inhibition assay (FC5 fluorogenic substrate). The format is biochemical. To be noted: mean ± SD (n = 3). Here is the method: as §1, §2

In the next experiment the test system is VIM-5. Put plainly: VIM-5 inhibition assay (FC5 fluorogenic substrate). The format is biochemical. Particulars: @ 100 μM; mean ± SD (n = 3). The method, then: as §1, §2
For another experiment, the target named is T4, VIM-1 (Pseudomonas aeruginosa, UniProt A0A0F7KYQ8).
T4 construct: Li's Laboratory, Sichuan University (collaborator, a gift and not a purchase)
In words: VIM-1 inhibition assay (FC5 fluorogenic substrate). Type of experiment: biochemical. Particulars: @ 100 μM; mean ± SD (n = 3). The method, then: as §1, §2

In experiment [5] the target is T1, VIM-2. In words: VIM-2 inhibition assay (FC5 fluorogenic substrate). The format is biochemical. Particulars: for IC50: 10 concentrations in threefold dilution, triplicate, read-out: IC50 against VIM-2; for inhibition at 10 µM / inhibition at 100 µM: mean ± SD (n = 3). The method, then:
as §2

For experiment [6], the target named is T3, IMP-1. Particulars: Figure 1, reported inhibitors; read-out: IMP-1 IC50 (reported MBL inhibitors); cited from earlier work.
The next experiment deals with CfiA. To be noted: Figure 1, reported natural product; read-out: CfiA IC50 (reported MBL inhibitors); cited from earlier work.
The next experiment concerns the target T5, KPC-2 (Klebsiella pneumoniae, UniProt Q9F663).
T5 construct: Li's Laboratory, Sichuan University (collaborator, a gift and not a purchase)
In words: KPC-2 SBL inhibition assay (counter screen). To be noted: mean ± SD (n = 3). The format is biochemical. Here is the method: (§3) Considering that MBLs and SBLs are two catalogs of β-lactamases, we further tested the compound 5l against some representative SBL enzymes, including KPC-2 (Klebsiella pneumoniae carbapenemase 2), TEM-1, AmpC, and OXA-48 (Oxacillinase 48), with the aim of investigating its selectivity; particularly, this is used as a counter screening to indicate the specific inhibition to MBLs. […] […].
as §2
Background: Counterscreens check selectivity or assay interference.

In the next experiment the target is T6, OXA-48 (Klebsiella pneumoniae, UniProt Q6XEC0).
T6 construct: Li's Laboratory, Sichuan University (collaborator, a gift and not a purchase)
T6 sequence (Q6XEC0 23-265 limits assumed): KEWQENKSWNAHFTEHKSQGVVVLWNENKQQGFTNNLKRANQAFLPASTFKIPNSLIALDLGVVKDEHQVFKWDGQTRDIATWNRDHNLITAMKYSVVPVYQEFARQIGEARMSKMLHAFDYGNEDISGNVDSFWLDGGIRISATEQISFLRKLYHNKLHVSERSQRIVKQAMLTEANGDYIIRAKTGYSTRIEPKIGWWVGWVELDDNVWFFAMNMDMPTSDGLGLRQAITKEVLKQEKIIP
Put plainly: OXA-48 SBL inhibition assay (counter screen). The format is biochemical. The method, then:
as §3, §2

The target in the next experiment is T7, TEM-1 (Escherichia coli, UniProt P62593).
T7 construct: Li's Laboratory, Sichuan University (collaborator, a gift and not a purchase)
T7 sequence (P62593 24-286 limits assumed): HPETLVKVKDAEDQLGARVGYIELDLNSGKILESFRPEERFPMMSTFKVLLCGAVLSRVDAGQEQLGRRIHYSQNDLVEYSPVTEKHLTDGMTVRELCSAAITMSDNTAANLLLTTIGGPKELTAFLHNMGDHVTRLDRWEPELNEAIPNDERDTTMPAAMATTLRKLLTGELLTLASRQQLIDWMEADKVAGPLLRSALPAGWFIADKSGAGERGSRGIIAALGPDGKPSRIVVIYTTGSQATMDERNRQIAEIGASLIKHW
In words: TEM-1 SBL inhibition assay (counter screen). The format is biochemical. To be noted: mean ± SD (n = 3). The method, then: (§4) Considering that MBLs and SBLs are two catalogs of β-lactamases, we further tested the compound 5l against some representative SBL enzymes, including KPC-2 (Klebsiella pneumoniae carbapenemase 2), TEM-1, AmpC, and OXA-48 (Oxacillinase 48), with the aim of investigating its selectivity; particularly, this is used as a counter screening to indicate the specific inhibition to MBLs.
as §2

The next experiment deals with AmpC. In words: AmpC SBL inhibition assay (counter screen). The format is biochemical. To be noted: 10 μM; mean ± SD (n = 3). The method, then:
as §4, §2

Where [7] appears, read: Figure 1, reported inhibitors; read-out: VIM-2 IC50 (reported MBL inhibitors); cited from earlier work.

The source of these data is article PMC6982996, “Discovery of [1,2,4]Triazole Derivatives as New Metallo-β-Lactamase Inhibitors” (Molecules, 2019).

Where two headings read alike, the source gives them in different places. Some results are limits rather than exact numbers.

T3 sequence (P52699 19-246 limits assumed): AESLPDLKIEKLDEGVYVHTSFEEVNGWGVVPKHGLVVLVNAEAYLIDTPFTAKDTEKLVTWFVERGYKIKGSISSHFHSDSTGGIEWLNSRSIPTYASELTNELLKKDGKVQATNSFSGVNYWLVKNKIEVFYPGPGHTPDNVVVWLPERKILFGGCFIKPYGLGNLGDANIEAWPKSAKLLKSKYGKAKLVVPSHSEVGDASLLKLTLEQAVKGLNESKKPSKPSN
T5 sequence (Q9F663 25-293, looked up): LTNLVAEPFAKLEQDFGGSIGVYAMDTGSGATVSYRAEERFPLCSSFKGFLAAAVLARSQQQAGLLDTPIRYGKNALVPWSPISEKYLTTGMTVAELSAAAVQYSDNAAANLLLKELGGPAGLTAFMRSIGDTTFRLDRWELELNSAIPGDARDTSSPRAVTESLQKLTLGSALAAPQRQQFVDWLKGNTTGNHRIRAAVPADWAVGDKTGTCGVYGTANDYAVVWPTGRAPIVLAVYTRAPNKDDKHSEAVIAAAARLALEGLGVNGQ

For `O=C(CSc1nnc(-c2ccccc2C(=O)O)[nH]1)Nc1nc2ccccc2s1` [IV], at VIM-2 [1] (Figure 1, reported inhibitor; read-out: VIM-2 Ki (reported MBL inhibitors); cited from earlier work), the Ki is 1.2 µM.

For the compound `Cc1ccccc1-c1nnc(S)n1/N=C/c1ccccc1C(=O)O` [V], the half-maximal inhibitory concentration (IC50) in the experiment on B3 L1 MBL was 15 µM.

Turning to `N[C@@H](CN[C@@H](CN[C@@H](CC(=O)O)C(=O)O)C(=O)O)C(=O)O` [XI, AMA], the IC50 on NDM-1 [2] was 4 µM; on VIM-2 [1] (setting [7]), 9.6 µM.

With `O=C(/C=C/c1ccc(O)c(O)c1)O[C@H](Cc1ccc(O)c(O)c1)C(=O)O` [XII, Rosmarinic acid], at VIM-2 [1] (read-out: VIM-2 IC50 (reported MBL inhibitors); Figure 1, reported inhibitors; cited from earlier work), the IC50 was 41.5 µM.

As for `Oc1ccccc1-c1nnc2n1CCCS2` [compound 6, 2-(6,7-Dihydro-5H-[1,2,4]triazolo[3,4-b][1,3]thiazin-3-yl)phenol], the figures for the inhibition at 10 µM on NDM-1 [3], against IMP-1 [4] and on VIM-2 [5] were 21%, 5% and 35%, respectively. The inhibition at 100 µM on NDM-1 [3] was determined as 26 ± 2%; against IMP-1 [4], 30 ± 3%; against VIM-1 it was 25 ± 3%; against VIM-2 [5], 57 ± 5%. The “Inhibition % VIM-5” value in the experiment on VIM-5 is 10 ± 2/– %. On VIM-2 [5], the concentration for half-maximal inhibition (IC50) was > 100 µM.

On to `CO[C@@H]1O[C@@H](C)Cc2oc3cc(O)c(O)c(C(=O)O)c3c(=O)c21` [X], for which the IC50 was 113 µM on IMP-1 [6] and 29 µM with CfiA.

For the compound `C[C@H](CS)C(=O)N[C@@H](C(=O)O)c1ccc(O)cc1` [II], the IC50 was 3.57 µM at NDM-1 [2] and 0.0137 µM at VIM-2 [1] (setting [7]).

Consider `Cc1c(-c2nnc3n2CCCS3)cccc1[N+](=O)[O-]` [5p, 3-(2-Methyl-3-nitrophenyl)-6,7-dihydro-5H-[1,2,4]triazolo[3,4-b][1,3]thiazine], for which the values for the inhibition at 10 µM against NDM-1 [3], on IMP-1 [4] and at VIM-2 [5] were 22%, -5% and 42%, respectively. The inhibition at 100 µM on NDM-1 [3] came out at 16 ± 2%; against IMP-1 [4], 10 ± 1%; on VIM-1 it was 19 ± 2%; against VIM-2 [5], 71 ± 6%. Moreover, the “Inhibition % VIM-5” value in the experiment on VIM-5 is recorded as 15 ± 1/– %. For the same compound, the 50% inhibitory concentration (IC50) on VIM-2 [5] was found to be 53.8 µM.

On to `Clc1ccc(-c2nnc3n2CCCS3)cc1` [5k, 3-(4-Chlorophenyl)-6,7-dihydro-5H-[1,2,4]triazolo[3,4-b][1,3]thiazine], for which the values for the inhibition at 10 µM against NDM-1 [3], against IMP-1 [4] and against VIM-2 [5] were 17%, 5% and 58%, respectively. For the same compound, the inhibition at 100 µM against NDM-1 [3] is 14 ± 1%; against IMP-1 [4], 7 ± 1%; against VIM-1 it was 28 ± 2%; against VIM-2 [5], 84 ± 6%. Moreover, the “Inhibition % VIM-5” value with VIM-5 is listed as 12 ± 1/– %. Besides, the IC50 on VIM-2 [5] turned out to be 47.2 µM.

Take `Fc1ccc(-c2nnc3n2CCCS3)cc1` [5j, 3-(4-Fluorophenyl)-6,7-dihydro-5H-[1,2,4]triazolo[3,4-b][1,3]thiazine]: the inhibition at 10 µM against NDM-1 [3] is 23 ± 2%; at IMP-1 [4], 13%; against VIM-2 [5], 32%. In addition, the inhibition at 100 µM against NDM-1 [3] came to 23 ± 2%; against IMP-1 [4], 8 ± 1%; at VIM-1, 27 ± 1%; at VIM-2 [5], 34 ± 3%. Besides, in the experiment with VIM-5, the “Inhibition % VIM-5” value is 14 ± 1/– %.

As for `Brc1ccc(-c2nnc3n2CCS3)cc1` [5s, 3-(4-Bromophenyl)-5,6-dihydrothiazolo[2,3-c][1,2,4]triazole], the inhibition at 10 µM at NDM-1 [3] is 29%; on IMP-1 [4], 9%; against VIM-2 [5], 50%. Moreover, the inhibition at 100 µM against NDM-1 [3] was 28 ± 3%; against IMP-1 [4], 4 ± 1%; against VIM-1, 29 ± 2%; at VIM-2 [5] it was 80 ± 3%. The “Inhibition % VIM-5” value in the experiment with VIM-5 is recorded as 14 ± 2/– %. For the same compound, the half-inhibitory concentration (IC50) at VIM-2 [5] stood at 67.2 µM.

On to `c1ccc(-c2nnc3n2CCCS3)nc1` [5q, 3-(Pyridin-2-yl)-6,7-dihydro-5H-[1,2,4]triazolo[3,4-b][1,3]thiazine], for which the inhibition at 10 µM was 20% on NDM-1 [3], 3% on IMP-1 [4] and 26% at VIM-2 [5]. Also, the inhibition at 100 µM against NDM-1 [3] came to 11 ± 1%; against IMP-1 [4], 9 ± 1%; on VIM-1, 19 ± 1%; on VIM-2 [5], 45 ± 1%. In addition, the “Inhibition % VIM-5” value with VIM-5 is recorded as 14 ± 1/– %.

On to `Brc1ccc(-c2nnc3n2CCCS3)cc1` [5l, 3-(4-Bromophenyl)-6,7-dihydro-5H-[1,2,4]triazolo[3,4-b][1,3]thiazine], for which the inhibition at 10 µM was 10% against NDM-1 [3]; 2 ± 1% against KPC-2 (10 μM); 7 ± 1% on OXA-48 (read-out: Inhibition % OXA-48); 9 ± 1% against TEM-1 (10 μM); 53% against VIM-2 [5]. The inhibition at 100 µM at NDM-1 [3] amounted to 8 ± 1%; at KPC-2 (100 μM), 8 ± 2%; on OXA-48 (read-out: Inhibition % OXA-48), 17 ± 2%; at VIM-1, 23 ± 1%; against TEM-1 (100 μM), 20 ± 3%; at VIM-2 [5], 86 ± 5%. Also, in the experiment with VIM-5, the “Inhibition % VIM-5” value is given as 33 ± 2/– %. Also, the “Inhibition % KPC-2” value on KPC-2 (100 μM) is recorded as “No or low inhibitory activities”. On OXA-48 (100 μM, mean ± SD (n = 3)), the “Inhibition % OXA-48” value is “No or low inhibitory activities”. For the same compound, on TEM-1 (100 μM), the “Inhibition % TEM-1” value was “No or low inhibitory activities”. Also, the “Inhibition % AmpC” value in the experiment on AmpC amounted to 13 ± 2%. The IC50 on VIM-2 [5] was determined as 38.4 µM.

For the compound `NCCN[C@H]1CC[C@H](CC(=O)N[C@H]2Cc3cccc(C(=O)O)c3OB2O)CC1` [IX, taniborbactam], the IC50 at VIM-2 [1] (setting [7]) is 0.0005 µM.

As to `C[C@H](CS)C(=O)N[C@@H](Cc1coc2ccccc12)B(O)O` [III], the IC50 at NDM-1 [2] is 37.9 µM; on VIM-2 [1] (setting [7]), 0.44 µM.

One may read the Ki as a measure of affinity in units of concentration, obtained from inhibition or displacement. The term IC50 denotes the concentration needed to halve the response being measured. The term inhibition denotes the change of the read-out against control, counted positive when it falls.
